“And” between values parts separate entries of the source, which are not always exact repeats. Equal values may be shown once. *1 amine or outer side, *2 acyl side, *3 side chain or, on linkers, in order; H or OH if unused. Where a SMILES comes first, the peptide text is derived from it. Bridges are numbered along the chain shown (N, C = ends). X1 = O=C(CCC[*:2])[*:1]
Experiments:
Format in all cases: toxicity, cell-based
HEK-293T = test: Incucyte cell viability with HEK293T; settings: human, 10 µM, compound concentration 10 uM
Fibroblast = test: Incucyte cell viability with human fibroblast; settings: 10 µM, compound concentration 10 uM
U2OS = test: Incucyte cell viability with U2OS; settings: human, 10 µM, compound concentration 10 uM
[1] = 0 h, replicate number 1, timepoint 0 hours
[2] = 0 h, replicate number 2, timepoint 0 hours
[3] = 12 h, replicate number 1, timepoint 12 hours
[4] = 6 h, replicate number 1, timepoint 6 hours
[5] = 6 h, replicate number 2, timepoint 6 hours
[6] = 18 h, replicate number 1, timepoint 18 hours
[7] = 18 h, replicate number 2, timepoint 18 hours
[8] = 24 h, replicate number 1, timepoint 24 hours
[9] = 12 h, replicate number 2, timepoint 12 hours
[10] = 24 h, replicate number 2, timepoint 24 hours
Note: unitless GR value; below 1 slowed growth and below 0 cell loss.

SMILES	Growth Rate (HEK-293T; [1])	Growth Rate (HEK-293T; [2])	Growth Rate (HEK-293T; [3])	Growth Rate (Fibroblast; [1])	Growth Rate (Fibroblast; [2])	Growth Rate (Fibroblast; [4])	Growth Rate (U2OS; [1])	Growth Rate (U2OS; [5])	Growth Rate (U2OS; [6])	Growth Rate (U2OS; [7])	Growth Rate (HEK-293T; [8])	Growth Rate (U2OS; [2])	Growth Rate (U2OS; [9])	Growth Rate (HEK-293T; [5])	Growth Rate (HEK-293T; [6])	Growth Rate (Fibroblast; [3])	Growth Rate (Fibroblast; [9])	Growth Rate (Fibroblast; [6])	Growth Rate (Fibroblast; [8])	Growth Rate (U2OS; [10])	other results
Cc1ccc(C(C)(O)c2nc3ccccc3s2)c(C)c1 (stereo unspecified)	0.98	0.84	0.99	0.44	0.92	0.67	-0.06	0.88	0.99	0.95	–	–	–	–	–	–	–	–	–	–	–
Cc1nn(C)c2nc(NNC(=O)Nc3cc(Cl)nc(Cl)c3)cc(C(C)C)c12	0.64	0.57	–	0.09	0.58	–	–	–	–	–	0.97	-1	0.96	–	–	–	–	–	–	–	–
O=C(O)c1n[nH]c2c1C[C@H]1C[C@@H]21	0.7	0.85	0.71	0.67	0.18 and 0.32	0.39 and 0.14	–	0.74	–	0.91 and 0.92	0.7	–	0.86	0.86 and 0.89	0.67	0.55 and 0.57	0.86	0.72 and 0.87	0.63 and 0.53	1	Growth Rate (HEK-293T; [4]): 0.55; Growth Rate (HEK-293T; [9]): 0.64; Growth Rate (HEK-293T; [7]): 0.58; Growth Rate (HEK-293T; [10]): 0.58; Growth Rate (Fibroblast; [5]): 0.95 and 0.74; Growth Rate (Fibroblast; [7]): 0.89; Growth Rate (Fibroblast; [10]): 0.79; Growth Rate (U2OS; [4]): -0.58; Growth Rate (U2OS; [8]): 0.99
Cc1ccc(-c2ccc(F)cc2COc2ccc(CCC(=O)O)cc2)cc1	0.43	0.55	–	–	0.45	0.23	-0.34	–	–	–	–	-0.59	–	–	–	0.58	–	0.18	0.42	–	–
C(#Cc1cccc(CN2CCOCC2)c1)CCN1CCCCC1	0.61	0.63	0.91	–	–	0.03	0.35	–	–	–	0.73	-1	–	–	0.78	0.14	0.09	0.39	0.28	–	Growth Rate (Fibroblast; [5]): 0.09; Growth Rate (Fibroblast; [7]): 0.23; Growth Rate (Fibroblast; [10]): 0.26
CSCC[C@H](NC=O)C(=O)N[C@@H](CC(C)C)C(=O)N[C@@H](Cc1ccccc1)C(=O)O	0.95	0.68	1	0.43	0.65	0.81	–	0.44	–	0.92	0.82	–	0.83	0.85	0.78	0.83	0.46	0.58	0.27	0.97	Growth Rate (HEK-293T; [9]): 0.9; Growth Rate (Fibroblast; [5]): 0.42; Growth Rate (Fibroblast; [7]): 0.69; Growth Rate (Fibroblast; [10]): 0.36
CCCn1c(=O)c2[nH]c(-c3ccc(OCC(=O)Nc4ccc(C#N)cc4)cc3)nc2n(CCC)c1=O	–	0.64	0.85	–	–	–	0.37	–	–	–	–	-1	–	–	0.94	–	–	–	–	–	Growth Rate (HEK-293T; [4]): 0.24
Cc1cnc(-c2cc(N3CCN(C(=O)CCS(C)(=O)=O)CC3)ncc2Cl)c(C)c1	0.65	0.96	–	–	–	0.66	–	0.63	–	0.92	–	–	–	–	–	0.76	0.17	0.94	0.94	–	Growth Rate (Fibroblast; [5]): 0.05; Growth Rate (Fibroblast; [7]): 0.71
O=C1NC(=O)C(c2ccccc2[N+](=O)[O-])=C1Nc1ccc(O)c(Cl)c1	0.17	0.13	–	-0.16	0.11	–	0.02	–	–	–	–	-1	–	–	–	–	–	–	–	–	Growth Rate (U2OS; [3]): 0.95; Growth Rate (U2OS; [8]): 0.84
CN(C)c1ccnc2sc3c(=O)n(N4CCCCCC4)cnc3c12	0.91	0.47	–	–	–	-0.22	–	–	0.51	0.91	–	-1	–	0.98	–	-0.14	0.1	-0.36	-0.42	–	Growth Rate (Fibroblast; [7]): 0.11; Growth Rate (Fibroblast; [10]): -0.22; Growth Rate (U2OS; [4]): 0.61; Growth Rate (U2OS; [3]): 0.54; Growth Rate (U2OS; [8]): 0.78
COc1cc(C(=O)N(CCCc2ccccc2)Cc2ccc(CC(=O)O)cc2)cc(OC)c1C	0.55	0.84	–	-0.55	0.01	–	-0.86	0.79	–	0.97	–	–	0.94	–	–	–	–	–	–	0.96	–
CSCC[C@H](NC(=O)[C@@H]1CCCN1C(=O)CNC(=O)[C@H](CCCCN)NC(=O)[C@H](Cc1cnc[nH]1)NC(=O)[C@H](CO)NC(=O)[C@H](CC(C)C)NC(=O)[C@H](CCCNC(=N)N)NC(=O)[C@@H]1CCCN1C(=O)[C@H](CCCNC(=N)N)NC(=O)[C@@H](N)CCC(N)=O)C(=O)N1CCC[C@H]1C(=O)N[C@@H](Cc1ccccc1)C(=O)O	0.46	0.65	–	0.13	0.64	–	–	0.73	–	0.91	0.74	-0.88	–	–	0.97	–	0.8	–	0.88	0.94	–
CCOc1ccc(Cc2nc3cc(C(=O)N(CC)CC)ccc3n2CC2CCCCC2)cc1	0.75	0.57	0.75	0.96	–	–	-0.21	–	–	1	0.93	-1	–	0.53	0.86	–	0.58	–	–	–	Growth Rate (Fibroblast; [5]): 0.61; Growth Rate (Fibroblast; [7]): 0.98
CC(C)c1cc(-c2ccc(F)c3ccccc23)nc(N)n1	0.46	0.76	–	-0.03	–	0.51	–	0.83	0.86	0.79	–	-0.96	–	0.72	–	0.58	–	0.4	0.62	0.89	Growth Rate (U2OS; [4]): 0.62; Growth Rate (U2OS; [3]): 0.81; Growth Rate (U2OS; [8]): 0.73
CCCOc1ccc2[nH]cc(C3=CCNCC3)c2n1.Cl	–	–	–	–	–	–	–	–	0.82	0.95	–	–	0.93	0.51	–	–	–	–	–	0.93	Growth Rate (HEK-293T; [9]): 0.75; Growth Rate (HEK-293T; [7]): 0.95; Growth Rate (U2OS; [4]): 0.81; Growth Rate (U2OS; [3]): 0.67; Growth Rate (U2OS; [8]): 0.92
CC[C@H](C)[C@@H]1NC(=O)[C@H](Cc2ccc(OC)cc2)NC(=O)CCCSC[C@@H](C(=O)N2CCC[C@H]2C(=O)N[C@@H](CC(C)C)C(=O)NCC(N)=O)NC(=O)[C@H](CC(N)=O)NC(=O)[C@H](CCC(N)=O)NC1=O [CARBETOCIN] (Y(Me)IQNCPLG-NH2; linker N-5 via X1)	0.31	-0.11	0.63	0.35	0.98	–	–	–	–	–	0.89	–	–	–	0.76	–	–	0.85	0.54	–	Growth Rate (HEK-293T; [4]): 1; Growth Rate (HEK-293T; [7]): 1; Growth Rate (HEK-293T; [10]): 0.92
CN1CCN2c3ccccc3Cc3ccccc3C2C1.Cl (stereo unspecified) [MIANSERIN HYDROCHLORIDE]	–	0.8	–	–	–	–	–	0.85	0.96	0.94	–	-1	0.97	–	–	–	–	–	–	0.97	–
CN1CCN2c3ncccc3Cc3ccccc3C2C1 (stereo unspecified) [MIRTAZAPINE]	–	–	–	–	–	–	–	–	–	0.79	–	-0.76	0.97	0.53	–	–	–	–	–	0.85	Growth Rate (U2OS; [3]): 0.81; Growth Rate (U2OS; [8]): 0.96
C[C@H](NC(=O)c1c(C(F)F)nn(C)c1Oc1cccc(C(F)(F)F)c1)c1ccc(C(=O)O)cc1 [PALUPIPRANT]	–	–	–	0.19	0.08	–	-0.16	–	0.93	–	–	-1	–	–	–	–	–	0.96	–	–	–

From ChEMBL document CHEMBL5058564, “EUbOPEN Chemogenomics Library 2 (Incucyte)” (2022)
